Test results: US20240327364A1, “THERAPEUTIC TARGETING OF GPR68 TO INDUCE FERROPTOSIS” (University Of Maryland, Baltimore, priority 2023, published 2024)

How the values were obtained:
AAK1 = target: T1, AAK1 (Homo sapiens, UniProt Q2M2I8); experiment: KinomeScan; assay type: binding; details: read-out: % Control
T1 construct: purchased DiscoveRx

BMX = target: T2, BMX (Homo sapiens, UniProt P51813); experiment: KinomeScan; assay type: binding; details: read-out: % Control
T2 construct: purchased DiscoveRx (Fremont, CA)
T2 sequence (P51813 whole entry): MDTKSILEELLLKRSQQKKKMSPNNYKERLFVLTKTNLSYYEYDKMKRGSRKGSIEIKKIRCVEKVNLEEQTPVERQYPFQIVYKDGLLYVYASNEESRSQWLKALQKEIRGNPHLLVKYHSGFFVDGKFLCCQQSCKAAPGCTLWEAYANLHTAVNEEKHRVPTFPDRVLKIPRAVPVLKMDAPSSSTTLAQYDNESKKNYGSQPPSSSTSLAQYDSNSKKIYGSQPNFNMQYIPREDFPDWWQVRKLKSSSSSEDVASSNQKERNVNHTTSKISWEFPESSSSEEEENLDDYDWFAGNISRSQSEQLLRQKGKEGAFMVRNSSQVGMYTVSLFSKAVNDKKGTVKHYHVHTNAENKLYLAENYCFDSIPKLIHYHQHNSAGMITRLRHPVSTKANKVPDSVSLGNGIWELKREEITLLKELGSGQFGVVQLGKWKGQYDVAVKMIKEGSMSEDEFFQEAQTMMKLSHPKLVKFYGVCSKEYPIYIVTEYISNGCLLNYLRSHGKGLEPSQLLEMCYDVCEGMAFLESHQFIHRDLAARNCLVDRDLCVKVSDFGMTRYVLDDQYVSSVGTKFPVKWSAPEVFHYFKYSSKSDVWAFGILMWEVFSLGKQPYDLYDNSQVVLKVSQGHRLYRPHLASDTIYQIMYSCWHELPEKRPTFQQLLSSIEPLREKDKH

BTK = target: T3, BTK (Homo sapiens, UniProt Q06187); experiment: KinomeScan; assay type: binding; details: read-out: % Control
T3 construct: purchased DiscoveRx (KinomeScan service)

EGFR(L747-T751del, Sins) = target: T4, EGFR(L747-T751del, Sins) (Homo sapiens, UniProt P00533, DEL747-750/T751S); experiment: KinomeScan; assay type: binding; details: read-out: % Control
T4 construct: purchased DiscoveRx (Fremont, CA), KinomeScan service

EPHA5 = target: T5, EPHA5 (Homo sapiens, UniProt P54756); experiment: KinomeScan; assay type: binding; details: read-out: % Control
T5 construct: purchased DiscoveRx (Fremont, CA)

INSR = target: T6, INSR (Homo sapiens, UniProt P06213); experiment: KinomeScan; assay type: binding; details: read-out: % Control
T6 construct: purchased DiscoveRx (Fremont, CA)
T6 sequence (P06213 28-1382): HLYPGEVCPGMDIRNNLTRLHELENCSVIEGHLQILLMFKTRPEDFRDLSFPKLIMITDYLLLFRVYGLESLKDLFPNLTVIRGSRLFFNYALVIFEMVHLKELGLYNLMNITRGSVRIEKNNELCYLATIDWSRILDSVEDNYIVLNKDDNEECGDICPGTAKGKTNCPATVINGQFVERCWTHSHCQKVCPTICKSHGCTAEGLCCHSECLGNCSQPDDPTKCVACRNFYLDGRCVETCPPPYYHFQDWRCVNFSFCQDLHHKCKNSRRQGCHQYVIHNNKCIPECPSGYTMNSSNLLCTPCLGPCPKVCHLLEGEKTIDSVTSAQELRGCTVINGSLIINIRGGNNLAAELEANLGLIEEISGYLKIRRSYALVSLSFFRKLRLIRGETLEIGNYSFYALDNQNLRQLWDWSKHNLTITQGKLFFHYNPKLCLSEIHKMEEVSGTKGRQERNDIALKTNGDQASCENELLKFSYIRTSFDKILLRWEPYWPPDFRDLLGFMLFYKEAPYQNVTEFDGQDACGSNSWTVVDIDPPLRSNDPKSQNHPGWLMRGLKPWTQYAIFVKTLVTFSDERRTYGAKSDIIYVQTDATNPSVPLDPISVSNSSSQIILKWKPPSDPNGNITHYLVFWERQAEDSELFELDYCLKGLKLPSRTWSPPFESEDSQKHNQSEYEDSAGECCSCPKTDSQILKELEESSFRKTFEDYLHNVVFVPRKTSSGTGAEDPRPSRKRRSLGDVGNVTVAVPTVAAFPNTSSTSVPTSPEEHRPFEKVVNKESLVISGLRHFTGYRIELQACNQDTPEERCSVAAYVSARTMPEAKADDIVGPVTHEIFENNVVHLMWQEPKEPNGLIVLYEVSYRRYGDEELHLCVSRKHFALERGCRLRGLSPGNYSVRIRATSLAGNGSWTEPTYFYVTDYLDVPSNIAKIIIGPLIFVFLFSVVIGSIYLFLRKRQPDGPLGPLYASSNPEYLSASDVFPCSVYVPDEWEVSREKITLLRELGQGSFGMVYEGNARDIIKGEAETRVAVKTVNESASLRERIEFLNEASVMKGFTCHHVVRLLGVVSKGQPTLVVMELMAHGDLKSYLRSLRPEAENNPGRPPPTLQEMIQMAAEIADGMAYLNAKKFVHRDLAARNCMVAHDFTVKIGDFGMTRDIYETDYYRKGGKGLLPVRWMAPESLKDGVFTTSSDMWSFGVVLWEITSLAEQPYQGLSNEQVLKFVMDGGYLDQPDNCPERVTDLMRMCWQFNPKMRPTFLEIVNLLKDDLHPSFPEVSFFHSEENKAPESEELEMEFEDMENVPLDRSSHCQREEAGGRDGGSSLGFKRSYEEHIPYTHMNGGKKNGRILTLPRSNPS

MYO3A = target: T7, MYO3A (Homo sapiens, UniProt Q8NEV4); experiment: KinomeScan; assay type: binding; details: read-out: % Control
T7 construct: purchased DiscoveRx

NEK2 = target: T8, NEK2 (Homo sapiens, UniProt P51955); experiment: KinomeScan; assay type: binding; details: read-out: % Control
T8 construct: purchased DiscoveRx
T8 sequence (P51955 whole entry): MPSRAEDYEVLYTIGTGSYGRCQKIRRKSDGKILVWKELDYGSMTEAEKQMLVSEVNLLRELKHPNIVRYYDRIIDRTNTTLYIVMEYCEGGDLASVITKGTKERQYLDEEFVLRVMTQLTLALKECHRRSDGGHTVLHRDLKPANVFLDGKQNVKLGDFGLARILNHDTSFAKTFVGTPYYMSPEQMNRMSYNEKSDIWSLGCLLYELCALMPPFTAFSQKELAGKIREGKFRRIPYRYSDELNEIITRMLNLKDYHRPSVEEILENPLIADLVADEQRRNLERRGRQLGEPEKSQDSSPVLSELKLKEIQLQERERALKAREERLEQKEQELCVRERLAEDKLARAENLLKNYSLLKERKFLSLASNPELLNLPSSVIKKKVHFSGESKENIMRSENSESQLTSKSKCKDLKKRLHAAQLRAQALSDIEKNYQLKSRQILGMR

PDPK1 = target: T9, PDPK1 (Homo sapiens, UniProt O15530); experiment: KinomeScan; assay type: binding; details: read-out: % Control
T9 construct: purchased DiscoveRx (Fremont, CA)
T9 sequence (O15530 whole entry): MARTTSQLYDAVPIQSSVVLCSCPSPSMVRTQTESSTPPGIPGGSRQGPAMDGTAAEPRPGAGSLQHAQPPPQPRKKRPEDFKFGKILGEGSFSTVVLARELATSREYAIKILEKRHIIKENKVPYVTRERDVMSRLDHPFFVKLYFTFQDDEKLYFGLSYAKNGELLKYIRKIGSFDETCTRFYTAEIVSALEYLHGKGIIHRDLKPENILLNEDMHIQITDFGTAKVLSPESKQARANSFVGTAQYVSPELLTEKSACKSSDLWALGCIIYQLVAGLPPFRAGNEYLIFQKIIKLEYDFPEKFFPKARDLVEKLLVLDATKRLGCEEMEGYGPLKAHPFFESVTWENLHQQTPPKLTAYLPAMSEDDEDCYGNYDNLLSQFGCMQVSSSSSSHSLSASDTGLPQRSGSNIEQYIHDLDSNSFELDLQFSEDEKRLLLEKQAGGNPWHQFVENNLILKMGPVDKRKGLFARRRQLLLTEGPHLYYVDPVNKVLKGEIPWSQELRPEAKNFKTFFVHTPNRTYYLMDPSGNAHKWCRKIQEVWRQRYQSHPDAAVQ

PRKCE = target: T10, PRKCE (Homo sapiens, UniProt Q02156); experiment: KinomeScan; assay type: binding; details: read-out: % Control
T10 construct: purchased DiscoveRx (Fremont, CA)

TIE2 = target: T11, TIE2 (Homo sapiens, UniProt Q02763); experiment: KinomeScan; assay type: binding; details: read-out: % Control
T11 construct: purchased DiscoveRx (Fremont, CA)

ADRA2A = target: T12, ADRA2A (Homo sapiens, UniProt P08913); experiment: GPCR Profiler; assay type: cell-based
T12 construct: host or cells: Chem-1 cells with promiscuous Gα15
T12 sequence (P08913 whole entry, species assumed): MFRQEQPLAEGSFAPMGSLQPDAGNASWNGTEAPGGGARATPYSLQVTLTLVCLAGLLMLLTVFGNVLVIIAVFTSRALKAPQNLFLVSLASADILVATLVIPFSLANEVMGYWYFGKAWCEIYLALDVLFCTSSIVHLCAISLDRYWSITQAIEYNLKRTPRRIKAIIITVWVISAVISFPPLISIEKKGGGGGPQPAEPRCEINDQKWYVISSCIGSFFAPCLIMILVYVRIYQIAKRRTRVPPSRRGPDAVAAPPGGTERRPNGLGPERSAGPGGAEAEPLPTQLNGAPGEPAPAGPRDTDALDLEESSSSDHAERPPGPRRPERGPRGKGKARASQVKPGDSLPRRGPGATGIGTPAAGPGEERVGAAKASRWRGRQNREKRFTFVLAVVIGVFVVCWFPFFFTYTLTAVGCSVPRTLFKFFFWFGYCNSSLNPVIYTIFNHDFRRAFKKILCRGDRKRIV

M2 = target: T13, M2 (Homo sapiens, UniProt P08172); experiment: GPCR Profiler; assay type: cell-based
T13 construct: host or cells: Chem-1 cells with promiscuous Gα15
T13 sequence (P08172 whole entry): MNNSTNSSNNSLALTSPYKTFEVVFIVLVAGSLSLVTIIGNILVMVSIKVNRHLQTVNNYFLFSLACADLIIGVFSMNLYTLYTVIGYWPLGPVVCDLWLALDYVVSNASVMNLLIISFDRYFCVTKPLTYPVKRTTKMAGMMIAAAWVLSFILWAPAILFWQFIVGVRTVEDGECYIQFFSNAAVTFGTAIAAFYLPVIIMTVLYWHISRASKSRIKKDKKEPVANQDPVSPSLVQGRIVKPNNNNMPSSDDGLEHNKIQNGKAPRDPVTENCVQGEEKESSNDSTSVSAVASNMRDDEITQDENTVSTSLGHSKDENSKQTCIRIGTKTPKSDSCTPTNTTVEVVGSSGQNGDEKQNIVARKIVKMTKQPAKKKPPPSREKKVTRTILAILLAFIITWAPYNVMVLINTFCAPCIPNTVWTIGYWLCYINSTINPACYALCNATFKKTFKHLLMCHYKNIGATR

PK1 = target: T14, PK1 (Homo sapiens, UniProt Q8TCW9); experiment: GPCR Profiler; assay type: cell-based
T14 construct: host or cells: Chem-1 cells with Gα15
T14 sequence (Q8TCW9 whole entry): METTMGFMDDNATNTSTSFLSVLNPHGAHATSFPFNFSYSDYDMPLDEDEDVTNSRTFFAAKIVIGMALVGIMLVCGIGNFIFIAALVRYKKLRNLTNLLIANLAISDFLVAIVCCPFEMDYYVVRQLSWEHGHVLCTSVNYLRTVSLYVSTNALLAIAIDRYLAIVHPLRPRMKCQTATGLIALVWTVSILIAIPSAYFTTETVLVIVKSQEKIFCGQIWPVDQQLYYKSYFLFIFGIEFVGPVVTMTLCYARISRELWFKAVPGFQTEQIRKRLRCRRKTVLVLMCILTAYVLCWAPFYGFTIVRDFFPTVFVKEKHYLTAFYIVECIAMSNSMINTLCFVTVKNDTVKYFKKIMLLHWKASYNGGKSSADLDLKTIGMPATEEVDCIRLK

PTH2 = target: T15, PTH2 (Homo sapiens, UniProt P49190); experiment: GPCR Profiler; assay type: cell-based
T15 construct: host or cells: Chem-1 cells with Gα15
T15 sequence (P49190 25-550): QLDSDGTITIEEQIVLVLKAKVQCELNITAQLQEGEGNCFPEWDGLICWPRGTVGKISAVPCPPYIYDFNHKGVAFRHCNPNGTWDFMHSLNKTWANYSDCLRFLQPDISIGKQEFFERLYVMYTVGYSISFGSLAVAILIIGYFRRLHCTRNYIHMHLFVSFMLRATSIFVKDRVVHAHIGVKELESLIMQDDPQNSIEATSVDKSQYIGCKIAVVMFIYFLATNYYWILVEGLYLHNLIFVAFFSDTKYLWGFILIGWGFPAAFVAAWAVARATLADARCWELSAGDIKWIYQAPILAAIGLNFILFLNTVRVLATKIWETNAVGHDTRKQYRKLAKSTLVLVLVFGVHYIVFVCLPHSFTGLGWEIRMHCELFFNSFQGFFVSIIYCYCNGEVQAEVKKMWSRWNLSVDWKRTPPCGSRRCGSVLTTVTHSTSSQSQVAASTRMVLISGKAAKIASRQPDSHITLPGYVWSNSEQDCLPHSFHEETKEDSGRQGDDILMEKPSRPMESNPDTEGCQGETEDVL

WM-115 = experiment: Cell Titer-Glo viability, Melanoma; assay type: cell-based
Protocol: OGM2 kills wide variety of cancer cell types. Cell sensitivity can be classified in to Very Sensitive (LC50<2 μM), Sensitive (LC50=2 to 10 μM), Mildly Sensitive (LC50>10 μM), and Refractory (no killing at 10 μM). The listed established cell were incubated with OGM2 at 2 μM or 10 μM for 72 hours under standard cell culture conditions, and relative cell number was assessed using Cell Titer-Glo Luminescent Cell Viability Assay (Promega™) following the manufacturer's instructions. Luminescence was determined using a Cytation 5 reader and Gen5 software package (BioTek™).
Cancer cells, which are very sensitive to killing by OGM2 (LCs <2 μM), with reported mRNA expression of GPR68 and the related proton sensing receptor GPR4. LC50's (concentrations causing 50% lethality) were determined using CellTiter-Glo (Promega™, G7570). Cells were plated in 12-well plates (CELLTREAT Scientific Products, 229112) in 1 ml of DMEM with high glucose, GlutaMAX, HEPES, or RPMI 1640 with Penicillin-Streptomycin (ThermoFisher™, 10564029, 11875119 and 15140122) and 10% FBS. Cells were incubated overnight at 37° C. in 5% CO2. Then 1 mL of fresh media was added with DMSO, OGM, or positive control (Erastin; APExBIO Technology, LLC, B1524) and cells incubated for 3 days. On the third day, all media was removed, cells were rinsed with 1×PBS, PBS was removed, and 200 μL of 1× Passive Lysis Buffer (Promega™, E1941) was added to each well. […]. Subsequently, 20 μL of lysate was added to 100 μL CellTiter-Glo™ reagent on a LUMITRAC 200 plate (Greiner™ bio-one, 82050-726). Plates were briefly spun down and read on a GloMax-Multi Detection System (Promega™).
The cells listed in the tables above were incubated with OGM2 at 2 μM or 10 μM for 72 hours under standard cell culture conditions, and relative cell number was assessed using Cell Titer-Glo Luminescent Cell Viability Assay (Promega™) following the manufacturer's instructions. Luminescence was determined using a Cytation 5 reader and Gen5 software package (BioTek™). RNA expression of GPR68 and GPR4 in the corresponding cancer cell lines are listed, according to the publicly available The Human Protein Atlas version 22.0 and Ensembl version 103.38 (see proteinatlas.org). The consensus normalized expression value (“nTPM”=normalize transcript per million) was calculated as the maximum nTPM value for each gene in the two data sources.

HEK293 = assay type: cell-based
Text: FIG. 59A through FIG. 59D: OGM2 causes specific cell death in glioblastoma cells.
Thus, in contrast to erastin, OGM2 induces ferroptosis selectively in cancer cells.

MeWo = experiment: Scratch assay; assay type: cell-based, human; details: 20 hours, OGM2 5 uM
Protocol: (§1) Since there are numerous parallels are found between neural crest cells and cancer during migration, we examined whether OGM could inhibit the migration of cells in human melanoma cell lines (Oppitz et al., 2007; Schriek et al., 2005, Sinnberg et al., 2018). […] A2058. MeWo and WM115 cells were grown to confluence and a stripe of cells were denuded with a p200 pipette tip “scratch” and rinsed with PBS. Cells were treated with OGM or DMSO and incubated in low serum media. Imaging was done at 30 minutes after “scratch” and then 20 hours afterwards. Areas were then measured and normalized to the initial area.

WM115 = experiment: Scratch assay; assay type: cell-based, human; details: 20 hours, OGM2 5 uM
Protocol: as §1

## CCc1ccc2c(c1)C1(NN=C(c3cccc4ccccc34)S1)C(=O)N2 (centres unmarked) [OGM1, 5-ethyl-5′-naphthalen-1-ylspiro[1H-indole-3,2′-3H-1,3,4-thiadiazole]-2-one]
AAK1
  remaining binding at 10 µM: 100%
BMX
  remaining binding at 10 µM: 100%
BTK
  remaining binding at 10 µM: 88%
EGFR(L747-T751del, Sins)
  remaining binding at 10 µM: 100%
EPHA5
  remaining binding at 10 µM: 97%
INSR
  remaining binding at 10 µM: 80%
MYO3A
  remaining binding at 10 µM: 95%
NEK2
  remaining binding at 10 µM: 78%
PDPK1
  remaining binding at 10 µM: 100%
PRKCE
  remaining binding at 10 µM: 68%
TIE2
  remaining binding at 10 µM: 100%
ADRA2A; 10 uM
  Antagonism: −5.1
ADRA2A; 12.5 uM
  Agonism: 0.1
M2; 10 uM
  Antagonism: 3.3
M2; 12.5 uM
  Agonism: −0.1
PK1; 10 uM
  Antagonism: −8
PK1; 12.5 uM
  Agonism: 0.2
PTH2; 10 uM
  Antagonism: −19.2
PTH2; 12.5 uM
  Agonism: 1.1

## CCc1ccc2c(c1)C1(NN=C(c3ccccc3)S1)C(=O)N2 (centres unmarked) [OGM2]
WM-115
  Class: Sensitive (Sensitive (LC50=2 to 10 μM))
WM-115; 72 hours
  % Survival 2 μM OGM: 92.9%
  % Survival 10 μM OGM: 40.7%
WM-115; Homo sapiens, WM-115, 72 hours, read-out: LC50 (the source's name)
  CC50: 2 to 10 µM
HEK293
  HEK293 cell viability / survival: no effect
MeWo
  migration: inhibited migration
WM115
  migration: inhibited migration
